The values below come from ChEMBL document CHEMBL4038288, “Novel quinoxalinyl chalcone hybrid scaffolds as enoyl ACP reductase inhibitors: Synthesis, molecular docking and biological evaluation” (Bioorg Med Chem Lett, 2017).

In assay [1] the test system is Candida albicans. Briefly: Antimicrobial activity against Candida albicans after 18 to 24 hrs by agar well-diffusion method. The assay is classed as functional. (In general: Agar diffusion results depend on both activity and mobility in agar.)
Assay [2] concerns MCF7. Briefly: Cytotoxicity against human MCF7 cells assessed as cell lysis at 40 ug/ml after 48 hrs by MTT assay. The assay is classed as functional.
The subject of assay [3] is MCF7. The assay is described as follows: Cytotoxicity against human MCF7 cells assessed as cell lysis at 10 ug/ml after 48 hrs by MTT assay. The assay is classed as functional, cell-based. (In general: Tetrazolium dyes change colour on reduction, which living cells bring about.)
Assay [4] relates to Staphylococcus aureus. The assay is described as follows: Antimicrobial activity against Staphylococcus aureus after 18 to 24 hrs by agar well-diffusion method. It is filed as functional.
Assay [5] relates to MCF7. The assay is described as follows: Cytotoxicity against human MCF7 cells assessed as cell lysis at 20 ug/ml after 48 hrs by MTT assay. The assay is classed as functional, cell-based.
Assay [6] relates to MCF7. Briefly: Cytotoxicity against human MCF7 cells assessed as cell lysis at 30 ug/ml after 48 hrs by MTT assay. The assay is classed as functional.
Assay [7] concerns Escherichia coli. Briefly: Antimicrobial activity against Escherichia coli after 18 to 24 hrs by agar well-diffusion method. The assay is classed as functional.
Assay [8] deals with MCF7. The assay is described as follows: Anticancer activity against human MCF7 cells after 48 hrs by MTT assay. It is filed as functional, cell-based.
Assay [9] relates to MCF7. The assay is described as follows: Cytotoxicity against human MCF7 cells assessed as cell lysis at 50 ug/ml after 48 hrs by MTT assay. The assay is classed as functional.
Assay [10] addresses T1, Enoyl-[acyl-carrier-protein] reductase [NADH] (Mycobacterium tuberculosis) (UniProt P9WGR1).
T1 sequence (whole entry): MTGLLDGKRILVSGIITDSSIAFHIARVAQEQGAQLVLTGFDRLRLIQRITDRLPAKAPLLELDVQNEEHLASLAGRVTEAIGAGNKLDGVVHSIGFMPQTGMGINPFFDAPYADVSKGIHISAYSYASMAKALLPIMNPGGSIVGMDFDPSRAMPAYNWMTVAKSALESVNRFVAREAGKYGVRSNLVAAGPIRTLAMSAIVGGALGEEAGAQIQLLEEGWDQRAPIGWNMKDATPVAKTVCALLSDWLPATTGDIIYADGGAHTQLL
The assay is described as follows: Inhibition of Mycobacterium tuberculosis H37Rv enoyl ACP reductase assessed as reduction in bacterial growth after 5 days by microplate alamar blue assay. A general note: Alamar Blue is a resazurin reagent that responds to reducing activity.

Assay [11] relates to MCF7. Briefly: Cytotoxicity against human MCF7 cells assessed as cell lysis after 48 hrs by MTT assay. It is filed as functional.

SMILES strings stand for the structures. Converted amounts (≈) assume the structure as drawn. The source made the active and inactive calls. The calls are words filed in the database; no cut-off is given here.

On to `Nc1ccc(C(=O)/C=C/c2cnc3ccccc3n2)cc1`, for which the MIC in assay [1] is 25 µg/mL (≈ 90.8 µM); in [4] it was 50 µg/mL (≈ 182 µM); in assay [7], 25 µg/mL (≈ 90.8 µM); in assay [10], 25 µg/mL (≈ 90.8 µM). The Activity in assay [2], in assay [6] and in assay [9] was 50% throughout. In addition, the outcome in assay [3] and in assay [5] was Active. For the same compound, the IC50 in [8] was 25 µg/mL (≈ 90.8 µM).
Turning to `O=C(/C=C/c1cnc2ccccc2n1)c1ccc(Cl)cc1`, the MIC in [1] was 25 µg/mL (≈ 84.8 µM); in assay [4], 25 µg/mL (≈ 84.8 µM); in assay [7] it was 10 µg/mL (≈ 33.9 µM); in assay [10], 25 µg/mL (≈ 84.8 µM).
As for `O=C(O)c1cn(C2CC2)c2cc(N3CCNCC3)c(F)cc2c1=O` [CIPROFLOXACIN], the MIC is 2 µg/mL (≈ 6.04 µM) in assay [4] and 3.12 µg/mL (≈ 9.42 µM) in assay [10].
Take `CN[C@@H]1[C@H](O[C@H]2[C@H](O[C@H]3[C@H](O)[C@@H](O)[C@H](N=C(N)N)[C@@H](O)[C@@H]3N=C(N)N)O[C@@H](C)[C@]2(O)C=O)O[C@@H](CO)[C@H](O)[C@H]1O`: in assay [10], the MIC was determined as 6.25 µg/mL (≈ 10.7 µM).
Take `O=C(/C=C/c1cnc2ccccc2n1)c1ccc(Br)cc1`: the MIC in assay [1] was 75 µg/mL (≈ 221 µM); in assay [4], 75 µg/mL (≈ 221 µM); in assay [7], 25 µg/mL (≈ 73.7 µM); in [10] it was 50 µg/mL (≈ 147 µM).
Take `OC(Cn1cncn1)(Cn1cncn1)c1ccc(F)cc1F` [FLUCONAZOLE]: the MIC in [1] is 16 µg/mL (≈ 52.2 µM).
For `O=C(/C=C/c1cnc2ccccc2n1)c1cccc(Br)c1`, the MIC is 25 µg/mL (≈ 73.7 µM) in assay [1], 25 µg/mL (≈ 73.7 µM) in [4], 5 µg/mL (≈ 14.7 µM) in assay [7] and 25 µg/mL (≈ 73.7 µM) in assay [10].
`COc1ccc(C(=O)/C=C/c2cnc3ccccc3n2)cc1`: the MIC in assay [1] was 25 µg/mL (≈ 86.1 µM); in assay [4], 50 µg/mL (≈ 172 µM); in assay [7] it was 25 µg/mL (≈ 86.1 µM); in assay [10], 25 µg/mL (≈ 86.1 µM).
For `O=C(/C=C/c1cnc2ccccc2n1)c1cccc([N+](=O)[O-])c1`, the MIC was 25 µg/mL (≈ 81.9 µM) in assay [1], 50 µg/mL (≈ 164 µM) in [4], 25 µg/mL (≈ 81.9 µM) in [7] and 25 µg/mL (≈ 81.9 µM) in [10].
As to `O=C(/C=C/c1cnc2ccccc2n1)c1ccc(O)cc1`, the outcome in assay [2], in [3], in assay [5], in [6] and in assay [9] was inactive. Further, the MIC in [4] stood at 5 µg/mL (≈ 18.1 µM); in [7], 5 µg/mL (≈ 18.1 µM); in [10] it was 3.12 µg/mL (≈ 11.3 µM).
Consider `O=C(/C=C/c1cnc2ccccc2n1)c1ccc(F)cc1`, for which the MIC was 25 µg/mL (≈ 89.8 µM) in [1], 75 µg/mL (≈ 270 µM) in [4], 25 µg/mL (≈ 89.8 µM) in assay [7] and 25 µg/mL (≈ 89.8 µM) in [10]. In addition, the result in assay [2], in assay [3], in [5], in assay [6] and in assay [9] was inactive. This compound also displayed an IC50 in assay [8] of 50 µg/mL (≈ 180 µM).
For `O=C(/C=C/c1cnc2ccccc2n1)c1cccc(O)c1`, the MIC in [1] was 10 µg/mL (≈ 36.2 µM); in assay [4] it was 10 µg/mL (≈ 36.2 µM); in [7], 5 µg/mL (≈ 18.1 µM); in assay [10], 3.12 µg/mL (≈ 11.3 µM).
As for `O=C(/C=C/c1cnc2ccccc2n1)c1ccncc1`, the MIC turned out to be 50 µg/mL (≈ 191 µM) in assay [1], 50 µg/mL (≈ 191 µM) in assay [4], 25 µg/mL (≈ 95.7 µM) in [7] and 6.25 µg/mL (≈ 23.9 µM) in assay [10].
In the case of `O=C(/C=C/c1cnc2ccccc2n1)c1ccccc1`, the MIC in [1] is 25 µg/mL (≈ 96 µM); in [4], 50 µg/mL (≈ 192 µM); in assay [7], 50 µg/mL (≈ 192 µM); in assay [10], 25 µg/mL (≈ 96 µM).
Consider `O=C(/C=C/c1cnc2ccccc2n1)c1ccc2ccccc2c1`, for which the MIC in assay [1], in assay [4], in assay [7] and in [10] was 25 µg/mL (≈ 80.6 µM) each time.
For `O=C(/C=C/c1cnc2ccccc2n1)c1ccc([N+](=O)[O-])cc1`, the MIC was 50 µg/mL (≈ 164 µM) in assay [1], 50 µg/mL (≈ 164 µM) in [4], 25 µg/mL (≈ 81.9 µM) in assay [7] and 25 µg/mL (≈ 81.9 µM) in assay [10].
`COc1cccc2c1C(=O)c1c(O)c3c(c(O)c1C2=O)C[C@@](O)(C(=O)CO)C[C@@H]3O[C@H]1C[C@H](N)[C@H](O)[C@H](C)O1` [DOXORUBICIN] returned an IC50 in assay [8] of 5 to 7.5 µg. Also, in [11], the Activity is recorded as 50%.
With `Nc1cccc(C(=O)/C=C/c2cnc3ccccc3n2)c1`, the MIC in [1] was found to be 25 µg/mL (≈ 90.8 µM); in assay [4] it was 50 µg/mL (≈ 182 µM); in [7], 25 µg/mL (≈ 90.8 µM); in [10] it was 25 µg/mL (≈ 90.8 µM).
As for `NC(=O)c1cnccn1`, the MIC in assay [10] is 3.12 µg/mL (≈ 25.3 µM).
